This is an account of results in patent US9096602B2, “Substituted pyrrolo[2,3-B]pyrazines as ATR kinase inhibitors” (Vertex Pharmaceuticals Incorporated, priority 2011, dated 2015).

For this assay, the target named is T1, ATR kinase (full-length ATR) (Homo sapiens, UniProt Q13535).
T1 construct: Assays were carried out at 25° C. in the presence of 5 nM full-length ATR
Put plainly: ATR Inhibition Assay (radioactive-phosphate incorporation). The class given is biochemical. To be noted: Ki(app), 5 nM full-length ATR, 10 μM ATP, 800 μM target peptide, 25° C., read-out: ATR Inhibition Ki. The protocol: Compounds were screened for their ability to inhibit ATR kinase using a radioactive-phosphate incorporation assay. Assays were carried out in a mixture of 50 mM Tris/HCl (pH 7.5), 10 mM MgCl2 and 1 mM DTT. Final substrate concentrations were 10 μM [y-33P]ATP (3mCi 33P ATP/mmol ATP, Perkin Elmer) and 800 μM target peptide ([…]).
Assays were carried out at 25° C. in the presence of 5 nM full-length ATR. An assay stock buffer solution was prepared containing all of the reagents listed above, with the exception of ATP and the test compound of interest. […] The plate was pre-incubated for 10 minutes at 25° C. and the reaction initiated by addition of 15 μL [y-33P]ATP (final concentration 10 μM).
The reaction was stopped after […] by the addition of 30 μL 0.1M phosphoric acid containing 2 mM ATP. A multiscreen phosphocellulose filter 96-well plate (Millipore, Cat no. MAPHN0B50) was pretreated with 100 μL 0.2M phosphoric acid prior to the addition of 45 μL of the stopped assay mixture. The plate was washed with 5×200 μL 0.2M phosphoric acid.
After removing mean background values for all of the data points, Ki(app) data were calculated from non-linear regression analysis of the initial rate data using the Prism software package (GraphPad Prism version 3.0cx for Macintosh, GraphPad Software, San Diego Calif., USA).

[1] abbreviates: given as numeric lower bound without unit.

Each structure is given as a SMILES string. Where two headings read alike, the source gives them in different places.

T1 sequence (Q13535 whole entry): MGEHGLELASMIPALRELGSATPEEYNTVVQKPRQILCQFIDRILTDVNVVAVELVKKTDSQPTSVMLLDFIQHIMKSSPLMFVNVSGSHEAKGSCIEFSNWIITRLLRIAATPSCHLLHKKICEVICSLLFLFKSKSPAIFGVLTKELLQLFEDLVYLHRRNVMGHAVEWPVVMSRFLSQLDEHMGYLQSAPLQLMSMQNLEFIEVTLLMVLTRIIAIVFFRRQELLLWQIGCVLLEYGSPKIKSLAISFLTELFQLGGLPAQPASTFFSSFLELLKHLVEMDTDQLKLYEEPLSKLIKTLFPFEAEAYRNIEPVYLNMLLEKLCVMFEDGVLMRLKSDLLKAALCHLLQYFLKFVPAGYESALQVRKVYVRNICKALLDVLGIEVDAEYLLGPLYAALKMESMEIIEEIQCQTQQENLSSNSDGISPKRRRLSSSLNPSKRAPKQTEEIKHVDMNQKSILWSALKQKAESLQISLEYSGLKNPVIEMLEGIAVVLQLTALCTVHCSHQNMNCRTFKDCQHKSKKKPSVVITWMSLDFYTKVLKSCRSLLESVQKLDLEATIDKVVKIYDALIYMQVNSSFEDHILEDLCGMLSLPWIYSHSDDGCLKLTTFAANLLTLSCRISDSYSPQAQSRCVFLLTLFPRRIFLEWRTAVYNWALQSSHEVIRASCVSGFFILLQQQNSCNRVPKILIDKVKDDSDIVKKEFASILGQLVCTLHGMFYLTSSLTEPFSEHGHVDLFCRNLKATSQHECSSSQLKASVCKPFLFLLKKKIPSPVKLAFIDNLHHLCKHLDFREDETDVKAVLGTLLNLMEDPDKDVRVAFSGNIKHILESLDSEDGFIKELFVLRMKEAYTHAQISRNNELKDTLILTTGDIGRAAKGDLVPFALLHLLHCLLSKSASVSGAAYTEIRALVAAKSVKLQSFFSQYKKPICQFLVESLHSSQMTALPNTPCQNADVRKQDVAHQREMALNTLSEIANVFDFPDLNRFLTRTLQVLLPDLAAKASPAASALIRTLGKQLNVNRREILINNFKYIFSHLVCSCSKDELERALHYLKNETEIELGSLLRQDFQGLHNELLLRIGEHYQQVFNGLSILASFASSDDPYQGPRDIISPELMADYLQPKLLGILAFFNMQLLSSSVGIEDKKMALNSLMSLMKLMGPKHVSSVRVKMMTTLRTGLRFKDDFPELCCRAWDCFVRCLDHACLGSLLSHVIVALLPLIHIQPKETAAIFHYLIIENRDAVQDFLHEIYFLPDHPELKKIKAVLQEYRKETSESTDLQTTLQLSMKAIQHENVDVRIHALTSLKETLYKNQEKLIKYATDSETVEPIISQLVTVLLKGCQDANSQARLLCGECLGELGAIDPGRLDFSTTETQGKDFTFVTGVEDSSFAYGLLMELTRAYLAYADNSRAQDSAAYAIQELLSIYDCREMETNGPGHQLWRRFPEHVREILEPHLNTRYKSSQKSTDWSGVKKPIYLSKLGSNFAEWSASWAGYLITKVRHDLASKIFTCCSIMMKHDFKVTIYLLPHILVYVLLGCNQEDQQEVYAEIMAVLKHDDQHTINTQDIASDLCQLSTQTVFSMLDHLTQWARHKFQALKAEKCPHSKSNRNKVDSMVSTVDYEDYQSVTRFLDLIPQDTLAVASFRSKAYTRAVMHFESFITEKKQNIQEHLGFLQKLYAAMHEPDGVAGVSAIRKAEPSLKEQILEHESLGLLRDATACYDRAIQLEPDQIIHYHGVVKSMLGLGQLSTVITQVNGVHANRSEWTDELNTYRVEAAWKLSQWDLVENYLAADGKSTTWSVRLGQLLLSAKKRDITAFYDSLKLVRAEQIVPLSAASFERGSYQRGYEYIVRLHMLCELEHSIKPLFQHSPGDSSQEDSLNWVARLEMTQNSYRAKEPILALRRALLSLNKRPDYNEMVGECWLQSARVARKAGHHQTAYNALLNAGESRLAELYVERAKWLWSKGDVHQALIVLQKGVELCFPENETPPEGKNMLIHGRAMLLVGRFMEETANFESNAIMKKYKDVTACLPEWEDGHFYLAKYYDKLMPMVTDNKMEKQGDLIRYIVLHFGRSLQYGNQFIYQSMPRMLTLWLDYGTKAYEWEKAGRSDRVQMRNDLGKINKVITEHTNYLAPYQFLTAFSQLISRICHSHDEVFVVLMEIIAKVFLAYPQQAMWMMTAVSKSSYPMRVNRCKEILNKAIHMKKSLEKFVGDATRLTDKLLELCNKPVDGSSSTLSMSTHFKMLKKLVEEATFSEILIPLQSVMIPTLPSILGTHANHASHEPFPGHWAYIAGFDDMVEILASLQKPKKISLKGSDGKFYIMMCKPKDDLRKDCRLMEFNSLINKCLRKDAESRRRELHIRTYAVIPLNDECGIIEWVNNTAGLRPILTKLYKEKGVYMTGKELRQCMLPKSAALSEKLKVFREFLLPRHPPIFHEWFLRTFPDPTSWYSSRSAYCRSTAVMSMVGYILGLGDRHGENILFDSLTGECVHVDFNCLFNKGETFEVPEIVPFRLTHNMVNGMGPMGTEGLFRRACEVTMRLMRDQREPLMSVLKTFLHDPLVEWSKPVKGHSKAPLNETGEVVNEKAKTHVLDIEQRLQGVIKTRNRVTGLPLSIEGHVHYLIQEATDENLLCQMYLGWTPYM

For the molecule `CC(C)S(=O)(=O)c1ccc(-c2cnc3[nH]cc(C(=O)NCc4ccc(N)cc4)c3n2)cc1` [Compound I-57, N-[(4-aminophenyl)methyl]-2-(4-isopropylsulfonylphenyl)-5H-pyrrolo[2,3-b]pyrazine-7-carboxamide], the Ki (class symbols) was less than 100 nM.
The same measure, in the same setting: the figure for `CC(C)S(=O)(=O)c1ccc(-c2cnc3[nH]cc(C(=O)N[C@@H](CCO)c4ccccc4)c3n2)cc1` [Compound I-51, N-[(1S)-3-hydroxy-1-phenyl-propyl]-2-(4-isopropylsulfonylphenyl)-5H-pyrrolo[2,3-b]pyrazine-7-carboxamide] is 500 to 5000 nM; for `CC(c1ccccc1F)N(C)C(=O)c1c[nH]c2ncc(-c3ccc(S(=O)(=O)C(C)C)cc3)nc12` (stereo not drawn) [Compound I-109, N-[1-(2-fluorophenyl)ethyl]-2-(4-isopropylsulfonylphenyl)-N-methyl-5H-pyrrolo[2,3-b]pyrazine-7-carboxamide] it is 500 to 5000 nM.
For the molecule `CC(C)S(=O)(=O)c1ccc(-c2cnc3[nH]cc(C(=O)N4CCNCC4)c3n2)cc1` [Compound I-137, [2-(4-isopropylsulfonylphenyl)-5H-pyrrolo[2,3-b]pyrazin-7-yl]-piperazin-1-yl-methanone], the Ki under setting [1] is more than 250 nM.
For the molecule `CC(C)S(=O)(=O)c1ccc(-c2cnc3[nH]cc(C(=O)Nc4ccncc4)c3n2)cc1` [Compound I-6, 2-(4-isopropylsulfonylphenyl)-N-(4-pyridyl)-5H-pyrrolo[2,3-b]pyrazine-7-carboxamide], the Ki (class symbols) is 100 to 500 nM.
Turning to `CC(C)S(=O)(=O)c1ccc(-c2cnc3[nH]cc(C(=O)NCc4ccccc4CO)c3n2)cc1` [Compound I-129, N-[[2-(hydroxymethyl)phenyl]methyl]-2-(4-isopropylsulfonylphenyl)-5H-pyrrolo[2,3-b]pyrazine-7-carboxamide], where the note is “class symbols”, the Ki was less than 100 nM.
Same read-out and setting: the figure for `COc1cccc(NC(=O)c2c[nH]c3ncc(-c4ccc(S(=O)(=O)C(C)C)cc4)nc23)c1` [Compound I-11, 2-(4-isopropylsulfonylphenyl)-N-(3-methoxyphenyl)-5H-pyrrolo[2,3-b]pyrazine-7-carboxamide] is 500 to 5000 nM; for `CC(C)S(=O)(=O)c1ccc(-c2cnc3[nH]cc(C(=O)Nc4ccc(CCO)cc4)c3n2)cc1` [Compound I-24, N-[4-(2-hydroxyethyl)phenyl]-2-(4-isopropylsulfonylphenyl)-5H-pyrrolo[2,3-b]pyrazine-7-carboxamide] it is less than 100 nM; for `CC(C)S(=O)(=O)c1ccc(-c2cnc3[nH]cc(C(=O)N[C@@H](C)c4ccccc4)c3n2)cc1` [Compound I-35, 2-(4-isopropylsulfonylphenyl)-N-[(1S)-1-phenylethyl]-5H-pyrrolo[2,3-b]pyrazine-7-carboxamide] it is 500 to 5000 nM.
On to `CC(C)S(=O)(=O)c1ccc(-c2cnc3[nH]cc(C(=O)NCC4(C)COC4)c3n2)cc1` [Compound I-105, 2-(4-isopropylsulfonylphenyl)-N-[(3-methyloxetan-3-yl)methyl]-5H-pyrrolo[2,3-b]pyrazine-7-carboxamide], for which, for the setting “class symbols”, the Ki lay within 500 to 5000 nM.
The same measure, in the same setting: the figure for `Cc1ccc([C@@H](CCO)NC(=O)c2c[nH]c3ncc(-c4ccc(S(=O)(=O)C(C)C)cc4)nc23)cc1` [Compound I-81, N-[(1R)-3-hydroxy-1-(p-tolyl)propyl]-2-(4-isopropylsulfonylphenyl)-5H-pyrrolo[2,3-b]pyrazine-7-carboxamide] is less than 100 nM.
Still for that read-out and setting: the figure for `CC(C)S(=O)(=O)c1ccc(-c2cnc3[nH]cc(C(=O)NC4(CO)CCCC4)c3n2)cc1` [Compound I-44, N-[1-(hydroxymethyl)cyclopentyl]-2-(4-isopropylsulfonylphenyl)-5H-pyrrolo[2,3-b]pyrazine-7-carboxamide] is 100 to 500 nM; for `CC(C)S(=O)(=O)c1ccc(-c2cnc3[nH]cc(C(=O)NCC4CCCO4)c3n2)cc1` (stereo not drawn) [Compound I-63, 2-(4-isopropylsulfonylphenyl)-N-(tetrahydrofuran-2-ylmethyl)-5H-pyrrolo[2,3-b]pyrazine-7-carboxamide] it is less than 100 nM.
On to `CC(C)S(=O)(=O)c1ccc(-c2cnc3[nH]cc(C(=O)N[C@H](C)c4ccccc4)c3n2)cc1` [Compound I-45, 2-(4-isopropylsulfonylphenyl)-N-[(1R)-1-phenylethyl]-5H-pyrrolo[2,3-b]pyrazine-7-carboxamide], for which, for the setting “class symbols”, the Ki was less than 100 nM.
On to `CC(C)S(=O)(=O)c1ccc(-c2cnc3[nH]cc(C(=O)N4CCCC(O)C4)c3n2)cc1` (stereo not drawn) [Compound I-23, (3-hydroxy-1-piperidyl)-[2-(4-isopropylsulfonylphenyl)-5H-pyrrolo[2,3-b]pyrazin-7-yl]methanone], for which the Ki under setting [1] was more than 4000 nM.
On the same count and under the same terms, the figure for `CC(C)S(=O)(=O)c1ccc(-c2cnc3[nH]cc(C(=O)N(CCO)C4CCCCC4)c3n2)cc1` [Compound I-121, N-cyclohexyl-N-(2-hydroxyethyl)-2-(4-isopropylsulfonylphenyl)-5H-pyrrolo[2,3-b]pyrazine-7-carboxamide] is more than 1000 nM.
With `CC(C)S(=O)(=O)c1ccc(-c2cnc3[nH]cc(C(=O)Nc4ccc(C#N)cc4)c3n2)cc1` [Compound I-14, N-(4-cyanophenyl)-2-(4-isopropylsulfonylphenyl)-5H-pyrrolo[2,3-b]pyrazine-7-carboxamide], the Ki (class symbols) lay in the range of 500 to 5000 nM.
As to `CC(C)S(=O)(=O)c1ccc(-c2cnc3[nH]cc(C(=O)Nc4cc(C(C)(C)C)on4)c3n2)cc1` [Compound I-133, N-(5-tert-butylisoxazol-3-yl)-2-(4-isopropylsulfonylphenyl)-5H-pyrrolo[2,3-b]pyrazine-7-carboxamide], the Ki under setting [1] is more than 40 nM.
For the molecule `CC(C)S(=O)(=O)c1ccc(-c2cnc3[nH]cc(C(=O)Nc4ccc(N)cc4)c3n2)cc1` [Compound I-18, N-(4-aminophenyl)-2-(4-isopropylsulfonylphenyl)-5H-pyrrolo[2,3-b]pyrazine-7-carboxamide], the Ki (class symbols) is less than 100 nM.
On the same count and under the same terms, the figure for `CC(C)S(=O)(=O)c1ccc(-c2cnc3[nH]cc(C(=O)NC(c4ccccc4)c4ccccc4)c3n2)cc1` [Compound I-108, N-benzhydryl-2-(4-isopropylsulfonylphenyl)-5H-pyrrolo[2,3-b]pyrazine-7-carboxamide] is 500 to 5000 nM; for `CC(C)S(=O)(=O)c1ccc(-c2cnc3[nH]cc(C(=O)NC4CCOCC4)c3n2)cc1` [Compound I-104, 2-(4-isopropylsulfonylphenyl)-N-tetrahydropyran-4-yl-5H-pyrrolo[2,3-b]pyrazine-7-carboxamide] it is 500 to 5000 nM.
For `CC(C)S(=O)(=O)c1ccc(-c2cnc3[nH]cc(C(=O)Nc4ccc(C(N)=O)cc4)c3n2)cc1` [Compound I-47, N-(4-carbamoylphenyl)-2-(4-isopropylsulfonylphenyl)-5H-pyrrolo[2,3-b]pyrazine-7-carboxamide], the Ki under setting [1] is more than 250 nM.
Take `CC(C)S(=O)(=O)c1ccc(-c2cnc3[nH]cc(C(=O)Nc4cccc(C(N)=O)c4)c3n2)cc1` [Compound I-36, N-(3-carbamoylphenyl)-2-(4-isopropylsulfonylphenyl)-5H-pyrrolo[2,3-b]pyrazine-7-carboxamide]: the Ki (class symbols) is less than 100 nM.
The same measure, in the same setting: the figure for `Cc1cccc(CNC(=O)c2c[nH]c3ncc(-c4ccc(S(=O)(=O)C(C)C)cc4)nc23)c1` [Compound I-16, 2-(4-isopropylsulfonylphenyl)-N-(m-tolylmethyl)-5H-pyrrolo[2,3-b]pyrazine-7-carboxamide] is less than 100 nM.
As to `CC(C)S(=O)(=O)c1ccc(-c2cnc3[nH]cc(C(=O)NC(CO)c4ccccc4)c3n2)cc1` (stereo not drawn) [Compound I-42, N-(2-hydroxy-1-phenyl-ethyl)-2-(4-isopropylsulfonylphenyl)-5H-pyrrolo[2,3-b]pyrazine-7-carboxamide], the Ki (class symbols) was less than 100 nM.
As for `CC(C)S(=O)(=O)c1ccc(-c2cnc3[nH]cc(C(=O)N4CCCC(N(C)C)C4)c3n2)cc1` (stereo not drawn) [Compound I-98, [3-(dimethylamino)-1-piperidyl]-[2-(4-isopropylsulfonylphenyl)-5H-pyrrolo[2,3-b]pyrazin-7-yl]methanone], the Ki under setting [1] was more than 4000 nM.
As to `CC(C)S(=O)(=O)c1ccc(-c2cnc3[nH]cc(C(=O)N4CCCN(C)CC4)c3n2)cc1` [Compound I-96, [2-(4-isopropylsulfonylphenyl)-5H-pyrrolo[2,3-b]pyrazin-7-yl]-(4-methyl-1,4-diazepan-1-yl)methanone], the Ki under setting [1] is more than 4000 nM.
As to `COC[C@H](NC(=O)c1c[nH]c2ncc(-c3ccc(S(=O)(=O)C(C)C)cc3)nc12)c1ccccc1` [Compound I-58, 2-(4-isopropylsulfonylphenyl)-N-[(1R)-2-methoxy-1-phenyl-ethyl]-5H-pyrrolo[2,3-b]pyrazine-7-carboxamide], the Ki (class symbols) lay within 500 to 5000 nM.
On the same count and under the same terms, the figure for `CC(C)S(=O)(=O)c1ccc(-c2cnc3[nH]cc(C(=O)Nc4cccc(O)c4)c3n2)cc1` [Compound I-22, N-(3-hydroxyphenyl)-2-(4-isopropylsulfonylphenyl)-5H-pyrrolo[2,3-b]pyrazine-7-carboxamide] is less than 100 nM; for `CC(O)c1cccc(NC(=O)c2c[nH]c3ncc(-c4ccc(S(=O)(=O)C(C)C)cc4)nc23)c1` (stereo not drawn) [Compound I-34, N-[3-(1-hydroxyethyl)phenyl]-2-(4-isopropylsulfonylphenyl)-5H-pyrrolo[2,3-b]pyrazine-7-carboxamide] it is 100 to 500 nM.
